Laboratory results: article PMC5562778 (Archives of Toxicology, 2017)
Values belong to the molecule of their own block, whether it stands above or below them.

Assays:
Chinese liver microsomes = assay: Microsomal conversion of estragole by Chinese liver microsomes (NADPH)
Method: (§1) The incubation mixtures contained (final concentrations) 3 mM NADPH and 1 mg/mL microsomal protein in 0.2 M Tris–HCl (pH 7.4). Incubations were performed for 10 min at substrate concentrations ranging from 25 to 1000 μM, after which the reaction was terminated by adding 25 μL ice-cold acetonitrile. Blank incubations were performed in the absence of the cofactor NADPH. All incubations were performed in triplicate. In the supporting materials 2, detailed information can be found (Table S1 can be used to keep track of detailed information).
(§2) Before UPLC analysis, all samples were centrifuged for 5 min at 16,000 g to precipitate microsomal proteins. Supernatant of each sample was analyzed on UPLC using a BEH C18 (1.7 μm, 2.1 × 50 mm) column with a guard column and a diode array detector (Acquity, Waters). […] Table S1 can be used to keep track of detailed information.
(§3) The apparent maximum velocity (V max) and the apparent Michaelis–Menten constant (K m) were determined by fitting the data to this equation using GraphPad Prism version 5.0 (GraphPad software, San Diego California USA).
(§4) The incubation mixtures contained (final concentrations) 3 mM NADPH and 1 mg/ml microsomal protein in 0.2 M Tris-HCl (pH 7.4). […] Incubations were performed for 10 min at substrate concentrations ranging from 25 to 1000 μM, after which the reaction was terminated by adding 25 μl ice-cold acetonitrile. […] Blank incubations were performed in the absence of the cofactor NADPH. All incubations were performed in triplicate.
The flow rate was 0.6 ml/min and the gradient started with 100 % ultrapure water.

[1] = test system: Caucasian liver microsomes; assay: Microsomal conversion of estragole by Caucasian liver microsomes (NADPH); type: in vitro ADME, human
Method: as §1
as §2, with “information. […] 3′-Hydroxyanethole was quantified by comparison of the peak areas of the metabolite in the chromatograms obtained at a wavelength of 206 nm to the calibration curve of the synthesized reference compound (Agharahimi and LeBel [1995]; Drinkwater et al. [1976]; Iyer et al. [2003]; Luo et al. [1992]).” for “information.”
as §3, §4
The flow rate was 0.6 ml/min and the gradient started with 100 % ultrapure water. After 1 min, the amount of acetonitrile was increased to 10 % and kept at that level for 1 min, after which the percentage of acetonitrile was increased to 35 % in 2.5 min and then increased to 100 % over 0.5 minute and kept at 100 % acetonitrile for another 1 min, and finally back to the starting conditions.

Chinese liver S9 [2] = assay: Sulfation of 1′-hydroxyestragole by Chinese liver S9 (PAPS, GSH trapping); type: in vitro ADME, human
Method: (§5) The formation of 1′-sulfooxyestragole was determined by incubating 0.2 mg/mL pooled mixed gender Chinese or Caucasian liver S9 in the presence of 0.2 mM PAPS as cofactor and 10 mM GSH as trapping agent for the reactive 1′-sulfooxyestragole in 0.1 M potassium phosphate (pH 8.0). The incubations were carried out for 2 h, and the reactions were terminated by adding 25 μL ice-cold acetonitrile. The blank samples were performed without cofactor. All incubations were performed in triplicate. In the supporting materials 2, detailed information can be found (Table S1 can be used to keep track of detailed information).
(§6) Before UPLC analysis, all samples were centrifuged for 5 min at 16, 000 g to precipitate microsomal or cytosolic proteins. Supernatant of each sample was analyzed on UPLC using a BEH C18 (1.7 μm, 2.1 × 50 mm) column with a guard column and a diode array detector (Acquity, Waters). Secondary metabolism of 1′-hydroxyestragole includes glucuronidation, oxidation, and sulfation. The gradient of analysis of the metabolites of 1′-hydroxyestragole can be found in supporting materials 2. Table S1 can be used to track more detailed information.
(§7) Since the UV spectrum of 3′-hydroxyanethole is similar to that of the GSH adduct of 1′-sulfooxyestragole, quantification of 1′-sulfooxyestragole could be achieved by comparing the peak area of the GSH adduct of 1′-sulfooxyestragole to the calibration curve of 3′-hydroxyanethole at a wavelength 260 nm as described for the quantification of 1′-sulfooxysafrole and 1′-sulfooxyelemicin (Martati et al. [2012]; Van den Berg et al. [2012]). The amount of 1′-sulfooxyestragole GSH adduct formed was corrected for the amount detected in the blank samples performed without the respective cofactor PAPS.
as §3
(§8) The formation of 1'-sulfooxyestragole was determined by incubating 0.2 mg/ml pooled mixed gender Chinese or Caucasian liver S9 in the presence of 0.2 mM PAPS as cofactor and 10 mM GSH as trapping agent for the reactive 1'-sulfooxyestragole in 0.1 M potassium phosphate (pH 8.0). The final volume of the incubations was 100 μl with the substrate 1'-hydroxyestragole ranging from 15 to 2000 μM added from 100 times concentrated stock solutions in DMSO. As previously described by Martati et al. (Martati et al. 2011) and Al-Subeihi et al. (Al-Subeihi et al. 2011), the reactions were started by adding substrate after a pre-incubation at 37 °C for 1 min. The incubations were carried out for 2 hours and the reactions were terminated by adding 25 μl ice-cold acetonitrile. […] The blank samples were performed without cofactor. All incubations were performed in triplicate.
(§9) For detection of the GSH conjugate of 1'-sulfooxyestragole, the flow rate was 0.6 ml/min and the mobile phase was made with acetonitrile and ultrapure water with 0.1 % (v/v) TFA. A linear gradient started from 20 to 30 % acetonitrile in 4.5 min, after which the percentage of acetonitrile was increased to 100 % in 0.3 min and kept at 100 % for another 0.2 min and finally set back to the starting condition.

Chinese liver S9 [3] = assay: Oxidation of 1′-hydroxyestragole by Chinese liver S9 (NAD+, GSH trapping); type: in vitro ADME, human
Method: (§10) Mixed gender Chinese or Caucasian liver S9 was incubated with 1′-hydroxyestragole in the presence of NAD^+ and GSH, the latter added to trap the transient 1′-oxoestragole. Formation of the 1′-oxoestragole adducts with GSH forming GS-1′-oxoestragole reflects the formation of 1′-oxoestragole (Punt et al. [2009]). […] The reactions were terminated after 10 min by the addition of 25 μL ice-cold acetonitrile. Blank incubations were performed without cofactor NAD^+. All incubations were performed in triplicate.
(§11) Secondary metabolism of 1′-hydroxyestragole includes glucuronidation, oxidation, and sulfation. The gradient of analysis of the metabolites of 1′-hydroxyestragole can be found in supporting materials 2. Table S1 can be used to track more detailed information.
(§12) Identification of the GS-1′-oxoestragole which reflects the formation of 1′-oxoestragole was done by comparing the UV spectra and retention time of the formed GSH adduct to those of GS-1′-oxoestragole identified as described previously (Punt et al. [2009]). Quantification of the GSH conjugate of 1′-oxoestragole was achieved by comparing the peak area to the calibration curve of GS-1′-oxoestragole at a wavelength of 280 nm prepared as described previously by Punt et al. ([2009], [2016]). Briefly, the calibration curve of GS-1′-oxoestragole was prepared by incubating 40 μM 1′-oxoestragole with a range of GSH concentrations. The reactions were incubated for 4 h after which maximal formation of GS-1′-oxoestragole was previously shown to be reached (Punt et al. [2009]).
(§13) Mixed gender Chinese or Caucasian liver S9 was incubated with 1'-hydroxyestragole in the presence of NAD^+ and GSH, the latter added to trap the transient 1'-oxoestragole. Formation of the 1'-oxoestragole adducts with GSH forming GS-1'-oxoestragole reflects the formation of 1'-oxoestragole (Punt et al. 2009). […] The mixtures were pre-incubated for 1 min at 37 °C, after which the reactions were started by adding the substrate 1'-hydroxyestragole at concentrations ranging from 15 to 1000 μM added from 100 times concentrated stock solutions in DMSO. The reactions were terminated after 10 min by the addition of 25 μl ice-cold acetonitrile. Under these conditions, the formation of the GSH adduct of 1'-oxoestragole was linear with time and cytosolic protein concentration (Punt et al. 2009). Blank incubations were performed without cofactor NAD^+. All incubations were performed in triplicate.
(§14) The gradient for analysis of the metabolites contains a mixture of acetonitrile and 0.1 % TFA in ultrapure water with 0.6 ml/min flow rate.

Caucasian liver S9 [4] = assay: Oxidation of 1′-hydroxyestragole by Caucasian liver S9 (NAD+, GSH trapping); type: in vitro ADME, human
Method: as §10, §11, §12, §13, §14

Caucasian liver S9 [5] = assay: Sulfation of 1′-hydroxyestragole by Caucasian liver S9 (PAPS, GSH trapping); type: in vitro ADME, human
Method: as §5, §6, §7, §3, §8, §9

SULT = SULT mediated conversion of 7-hydroxycoumarin to 7-hydroxycoumarin sulfate, liver S9; type: in vitro ADME, human
Method: The quality of the Chinese and Caucasian liver microsomes was checked by measuring the activity of CYP1A2 and CYP2A6 by the method of Yang et al. ([2012]). The quality of Chinese and Caucasian liver S9 samples was checked by measuring the SULT activity based on the method provided by Wang et al. ([2006]). The details of the methods for the microsomal and S9 in vitro incubations and UPLC analysis for assessing the metabolic capabilities of CYP and SULT enzymes can be found in the supporting materials 1.
Before UPLC analysis, all samples were centrifuged for 5 min at 16, 000g to precipitate microsomal or cytosolic proteins. Supernatant of each sample was analyzed on UPLC using a BEH C18 (1.7 μm 2.1×50 mm) column with a guard column and a diode array detector (Acquity, Waters).

[6] = formation of the metabolite from estragole, Chinese liver microsomes, average ± SEM
[7] = in vitro, liver microsomes, conversion of estragole
[8] = formation of the metabolite from estragole, Caucasian liver microsomes, average ± SEM
[9] = formation from 1′-hydroxyestragole (oxidation), Chinese liver S9
[10] = formation from 1′-hydroxyestragole (oxidation), Chinese liver S9, listed as 1′-oxoestragole
[11] = formation from 1′-hydroxyestragole (oxidation), Caucasian liver S9
[12] = formation from 1′-hydroxyestragole (oxidation), Caucasian liver S9, listed as 1′-oxoestragole
[13] = formation from 1′-hydroxyestragole (sulfation), Chinese liver S9
[14] = formation from 1′-hydroxyestragole (sulfation), Caucasian liver S9

SMILES: C=CC(O)c1ccc(OC)cc1 (stereo not drawn) [1′-Hydroxyestragole]
- Catalytic efficiency (scaled V max / K m) (Chinese liver microsomes; formation from estragole, Chinese, scaled to liver): 15.0 µL/h/g liver
- Scaled V max (Chinese liver microsomes; formation from estragole, Chinese, scaled with microsomal protein yield 35 mg/(g tissue)): 0.7 µmol/h/g liver
- K m (Chinese liver microsomes; [6]): 49 ± 8 µM
- V max (Chinese liver microsomes; [6]): 0.35 ± 0.01 nmol /min/mg microsomal or S9 protein
- Catalytic efficiency for formation of the metabolite, lower in Chinese than in Caucasian samples (Chinese liver microsomes; [7]): 2.4 fold
- V max for formation of the metabolite, lower in Chinese than in Caucasian samples (Chinese liver microsomes; [7]): 3.4 fold
- V max, lower in Chinese than in Caucasian liver incubations (Chinese liver microsomes; scaled kinetic constants (Table 3), conversion of estragole): 3.5 fold
- Catalytic efficiency (scaled V max / K m) ([1]; formation from estragole, Caucasian, scaled to liver): 40.3 µL/h/g liver
- Scaled V max ([1]; formation from estragole, Caucasian, scaled with microsomal protein yield 35 mg/(g tissue)): 2.5 µmol/h/g liver
- Catalytic efficiency (V max/K m × 1000) ([1]; formation of the metabolite from estragole, Caucasian liver microsomes): 19.3 µL/min/mg microsomal or S9 protein
- K m [1, 8]: 62 ± 9 µM
- V max [1, 8]: 1.19 ± 0.04 nmol /min/mg microsomal or S9 protein
- Scaled catalytic efficiency for sulfation, lower for Chinese than Caucasian samples (Chinese liver S9 [2]; scaled to liver, sulfation of 1′-hydroxyestragole to 1′-sulfooxyestragole): 4.5 fold

SMILES: C=CC(=O)c1ccc(OC)cc1 [1′-Oxoestragole]
- Catalytic efficiency (V max/K m × 1000) (Chinese liver S9 [3]; [9]): 4.5 µL/min/mg microsomal or S9 protein
- K m (Chinese liver S9 [3]; [9]): 403 ± 137 µM
- V max (Chinese liver S9 [3]; [9]): 1.82 ± 0.28 nmol /min/mg microsomal or S9 protein
- K m (Chinese liver S9 [3]; [10]): 403 µM
- V max (Chinese liver S9 [3]; [10]): 1.82 nmol /min/mg microsomal or S9
- Catalytic efficiencies for formation of 1′-oxoestragole, Chinese versus Caucasian (Chinese liver S9 [3]; in vitro, oxidation of 1′-hydroxyestragole, liver S9): similar
- Scaled V max (Chinese liver S9 [3]; oxidation of 1′-hydroxyestragole, Chinese, S9 protein yield 143 mg/(g tissue)): 15.6 µmol/h/g liver
- Catalytic efficiency (scaled V max / K m) (Chinese liver S9 [3]; oxidation of 1′-hydroxyestragole, Chinese, scaled to liver): 38.7 µL/h/g liver
- Scaled catalytic efficiencies for formation of 1′-oxoestragole, Chinese versus Caucasian (Chinese liver S9 [3]; scaled to liver, oxidation of 1′-hydroxyestragole): similar
- Catalytic efficiency (V max/K m × 1000) (Caucasian liver S9 [4]; [11]): 5.4 µL/min/mg microsomal or S9 protein
- K m (Caucasian liver S9 [4]; [11]): 521 ± 265 µM
- V max (Caucasian liver S9 [4]; [11]): 2.8 ± 0.70 nmol /min/mg microsomal or S9 protein
- K m (Caucasian liver S9 [4]; [12]): 521 µM
- V max (Caucasian liver S9 [4]; [12]): 2.8 nmol /min/mg microsomal or S9
- Scaled V max (Caucasian liver S9 [4]; oxidation of 1′-hydroxyestragole, Caucasian, S9 protein yield 143 mg/(g tissue)): 24.0 µmol/h/g liver
- Catalytic efficiency (scaled V max / K m) (Caucasian liver S9 [4]; oxidation of 1′-hydroxyestragole, Caucasian, scaled to liver): 46.1 µL/h/g liver

SMILES: C=CC(OS(=O)(=O)O)c1ccc(OC)cc1 (stereo not drawn) [1′-Sulfooxyestragole]
- Catalytic efficiency (V max/K m × 1000) (Chinese liver S9 [2]; [13]): 0.0021 µL/min/mg microsomal or S9 protein
- K m (Chinese liver S9 [2]; [13]): 694 ± 321 µM
- V max (Chinese liver S9 [2]; [13]): 0.0014 ± 0.0002 nmol /min/mg microsomal or S9 protein
- Catalytic efficiency for formation of 1′-sulfooxyestragole, lower in Chinese than in Caucasian samples (Chinese liver S9 [2]; in vitro, sulfation of 1′-hydroxyestragole, liver S9): fivefold
- Scaled V max (Chinese liver S9 [2]; sulfation of 1′-hydroxyestragole, Chinese, S9 protein yield 143 mg/(g tissue)): 0.01 µmol/h/g liver
- Catalytic efficiency (scaled V max / K m) (Chinese liver S9 [2]; sulfation of 1′-hydroxyestragole, Chinese, scaled to liver): 0.02 µL/h/g liver
- Catalytic efficiency (V max/K m × 1000) (Caucasian liver S9 [5]; [14]): 0.01 µL/min/mg microsomal or S9 protein
- K m (Caucasian liver S9 [5]; [14]): 423 ± 159 µM
- V max (Caucasian liver S9 [5]; [14]): 0.004 ± 0.0005 nmol /min/mg microsomal or S9 protein
- Scaled V max (Caucasian liver S9 [5]; sulfation of 1′-hydroxyestragole, Caucasian, S9 protein yield 143 mg/(g tissue)): 0.03 µmol/h/g liver
- Catalytic efficiency (scaled V max / K m) (Caucasian liver S9 [5]; sulfation of 1′-hydroxyestragole, Caucasian, scaled to liver): 0.08 µL/h/g liver

- Km at 10 min (SULT; human, pH 7.4, Chinese liver S9): 1.7 µM
SMILES: O=c1ccc2ccc(O)cc2o1 [7-hydroxycoumarin]
- Vmax for SULT mediated conversion, both ethnic groups compared (SULT; Chinese and Caucasian liver S9): similar
